From US20230416196A1, “DIMER OF BIGUANIDINES AND THEIR THERAPEUTIC USES” (INSTITUT CURIE, priority 2020, published 2023)

What was measured:
αKG in activated MDM = experiment: α-Ketoglutarate (αKG) fluorometric quantification in activated MDM; format: cell-based, human; settings: Met 10 mM, LCC-12 10 μM; FIG. 3B
Procedure: Cell culture. Peripheral blood samples were collected from distinct healthy donors (Etablissement Français du Sang). Pan monocytes were isolated by negative magnetic sorting using microbeads according to the manufacturer's instructions (Miltenyi Biotec, 130-096-537), and cultured in RPMI 1640 supplemented with glutamine (Thermo Fisher Scientific, 61870010), 10% fetal bovine serum and exposed to granulocyte-macrophage colony-stimulating factor (GM-CSF, Miltenyi Biotec, 130-093-866, 100 ng/mL) to induce differentiation into macrophages (MDM). […]
α-Ketoglutarate (αKG) measurements. αKG was quantified using a fluorometric assay (Abcam, ab83431) according to the manufacturer's protocol. […] Cells were subsequently washed with ice-cold 1×PBS and counted. […] Samples were centrifuged at 13000× g for 15 min and the supernatants collected. αKG levels were measured using a standard curve and a control to subtract pyruvate background levels. Fluorescence intensities (ex. 535 nm; em. 590 nm) were recorded using a Perkin Elmer Wallac 1420 Victor2 Microplate Reader, and data were normalized against cell number. […]

[1] = system: mice challenged by cecal ligation and puncture; experiment: Murine model of sepsis using cecal ligation and puncture (CLP); format: in vivo, BALB/c mice
Procedure: Murine model of sepsis using cecal ligation and puncture. All animal-related research is conducted in accordance with 2010/63/EU and National legislation regulating the use of laboratory animals in scientific research and for other purposes (Official Gazette 55/13). An Institutional Committee on Animal Research Ethics (CEEA-047) oversees that animal-related procedures are not compromising the animal welfare. 9 weeks-old male BALB/c mice were used for these experiments. Animals were anesthetized by isoflurane (Forene). After abdominal incision, the cecum was ligated, punctured with a gauge needle (25G or 21G), and a small amount of fecal matter was released. After the cecum was returned to the abdomen, the abdominal cavity was closed in two layers and the mice were resuscitated with 30 mL/kg body weight of saline (0.9% NaCl) administered subcutaneously. For the sham group, after abdominal incision, the cecum was manipulated but was neither ligated nor punctured. After the cecum was returned to the abdomen, the abdominal cavity was closed in two layers and the mice were resuscitated with 30 mL/kg body weight of saline administered subcutaneously. LCC-12 (0.3 mg/kg, IP) was administered at 0.3 mg/kg dose 4 h, 24 h, 48 h, 72 h and 96 h following CLP creation. Mortality incidence was monitored every 2 h up to 120 h (except from 10 pm to 6 am) post CLP creation. Dexamethasone was administered intraperitoneally at 1 mg/kg dose 5-minutes prior CLP creation.

[2] = system: biopsy-derived organoids of PDAC; experiment: Chemograms on biopsy-derived organoids of pancreatic ductal adenocarcinoma; format: cell-based, human; settings: 72 h, CellTiter-Glo 3D; FIG. 9
Source text: Biopsy-derived pancreatic organoid (BDPO) generation. BDPOs were obtained from endoscopic ultrasound-guided fine-needle aspirations (EUS-FNA) from patients with PDAC included under the PaCaOmics clinical trial (ClinicalTrials.gov: NCT01692873) after approval by the Paoli-Calmettes hospital ethics committee and following patient informed consent. Cultures were established as previously described. Briefly, PDAC biopsies were slightly digested with the Tumor Dissociation Kit (Miltenyi Biotec) at 37° C. for 5 minutes. The pancreatic tissue slurry was transferred into a tissue strainer 100 μm and was placed into 12-well plates coated with 150 μL GFR matrigel (Corning, Boulogne-Billancourt, France). […]
Chemograms on BDPO. […] 24 hours later, one plate was used directly for RNA preparation (Time 0 transcriptome) and on the other the medium was supplemented with increasing concentrations of each drug, 72 hours later cell viability was measured with CellTiter-Glo 3D (Promega) reagent quantified using the plate reader Tristar LB941 (Berthold Technologies). Values were normalized and expressed as the percentage of the control (vehicle), which represents 100% of normalized fluorescence. […]

Maximum tolerated dose = settings: stated relative to the 0.3 mg/kg/day dose used

In the case of `N=C(N)NC(=N)NCCCCCCCCCCCCNC(=N)NC(=N)N` [LCC-12, lipophilic copper clamp C12], the “increase of αKG in activated MDM” value (αKG in activated MDM) is reported as “more potent than Met at a dose 1000-fold lower”, the “survival in CLP sepsis” value ([1]; 21G needle, LCC-12 0.3 mg/kg IP, FIG. 5A) is reported as “delayed death and increased survival rate” and the “body weight loss in CLP-induced sublethal sepsis” value ([1]; 25G needle, LCC-12 0.3 mg/kg IP, FIG. 5C) is reported as “reduced body weight loss”. For the same compound, the “overall gravity score of symptoms in CLP-induced sublethal sepsis” value ([1]; 25G needle, LCC-12 0.3 mg/kg IP, FIG. 5D) was “improved the overall gravity score of symptoms”, the “symptoms of sepsis compared to dexamethasone” value ([1]; CLP, throughout the treatments) was “considerably attenuated the symptoms of sepsis compared to dexamethasone” and the “efficacy (IC50) on biopsy-derived organoids of PDAC” value [2] was “low micromolar range”. For the same compound, the “maximum tolerated dose (MTD)” value (Maximum tolerated dose) was 0.3 mg/kg/day, a dose 10 times lower than the maximum tolerated dose.
